# Substitutions are numbered along the chain they refer to.
# Target: T1, human muscarinic receptor subtype 1 (M1) (Homo sapiens, UniProt P11229)
# T1 sequence (P11229 1-460): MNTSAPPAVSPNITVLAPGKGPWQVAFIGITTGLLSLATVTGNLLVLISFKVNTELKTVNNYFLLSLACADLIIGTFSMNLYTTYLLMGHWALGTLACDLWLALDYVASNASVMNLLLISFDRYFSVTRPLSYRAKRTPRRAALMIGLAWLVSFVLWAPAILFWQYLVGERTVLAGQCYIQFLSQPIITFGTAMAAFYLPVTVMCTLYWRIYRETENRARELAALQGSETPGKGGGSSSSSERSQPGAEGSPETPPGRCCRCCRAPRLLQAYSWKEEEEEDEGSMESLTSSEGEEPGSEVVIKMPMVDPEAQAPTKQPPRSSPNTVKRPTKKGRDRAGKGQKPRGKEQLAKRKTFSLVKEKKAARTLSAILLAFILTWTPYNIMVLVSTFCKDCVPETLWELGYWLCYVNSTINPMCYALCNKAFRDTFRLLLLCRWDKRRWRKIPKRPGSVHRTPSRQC
# Experiment: Calcium mobilization assay in hM1-CHO cells, PAM activity with EC20 acetylcholine
# Type: cell-based
# Conditions: not given
# Experimental: (§1) page 2: Procedures for Biological Experiments Calcium mobilization assays: To measure the functional activity of positive allosteric modulator (PAM) compounds in a cellular assay, human or rat muscarinic receptor subtype 1 (M1) was stably expressed in the Chinese hamster ovary (CHO) cells to evoke an increase in intracellular calcium to an EC20 concentration of acetylcholine (ACh) agonist. The stable M1-CHO cells were cultured in F12 medium containing 10% fetal bovine serum, 20 mM HEPES, 100 units/mL antibiotics/antimycotic, 0.5 mg/ml G418. All reagents used were from Life Technologies (Carlsbad, CA) unless otherwise noted. Briefly, the day before the assay, stable M1-CHO cells (15,000 cells/20 μL/well) were plated in black-walled, clear-bottomed, 384 well plates (Greiner Bio-One, Monroe, NC) in the culture medium without G418, and then incubated overnight at 37 °C in the presence of 5% CO2. The next day, calcium assay buffer (Hank’s balanced salt solution (HBSS), 20 mM HEPES, 2.5 mM Probenecid, 4.16 mM sodium bicarbonate (Sigma-Aldrich, St. Louis, MO) was prepared to dilute […] calcium indicator dye. […] curves in DMSO using the Bravo Liquid Handler (Agilent, Santa Clara, CA), transferred to a 384 well daughter plates using an Echo acoustic liquid handler (Beckman Coulter, Indianapolis, Indiana), and diluted in assay Buffer to a 2X final concentration. The agonist plates were prepared using acetylcholine (ACh, Sigma-Aldrich, St. Louis, MO) concentrations for the EC20 and ECMAX responses by diluting in assay buffer to a 5X final concentration. The 2X dye solution (2.3 µM) was prepared by mixing a 2.3 mM Fluo-4-AM stock in DMSO with 10% (w/v) pluronic acid F- 127 in a 1:1 ratio in assay buffer. Using a microplate washer (BioTek, Winooski, VT), cells were washed with assay buffer for 3 times to remove medium. After the final wash, 20 μL of assay buffer remained in the cell plates. Immediately, 20 μL of the 2X dye solution (final 1.15 µM) was added to each well of the cell plate using a Multidrop Combi dispenser (Thermo Fisher, Waltham, MA). After cells were incubated with the dye solutions for 45 min at 37 °C in the presence of 5% CO2, the dye solutions were removed and replaced with assay buffer using a microplate washer, leaving 20 μL of assay buffer in the cell plate. The compound, agonist, and cell plates were placed inside the Functional Drug Screening System uCell (FDSS uCell, Hamamatsu, Japan) to measure the calcium flux. The triple add protocol was used to measure Ca kinetics; Compound, ACh for EC20, and ACh for ECMAX adds in an order. Briefly, after establishment of a fluorescence baseline S2 page 3: for 2 seconds (excitation, 480 nm; emission, 530 nm), first add occurred by adding 20 µL of test compound to the cells, and the response was measured for 140 seconds. This is followed by second add; 10 µL (5X) of an EC20 concentration of ACh agonist was added to the cells, and the response of the cells was measured for 125 seconds. Immediately, the third add occurred by adding 12 ul assay buffer or 5X of an EC max concentration of ACh and the response of the cells was measured for 90 seconds. Assay buffer was added to the wells that incubated with compounds followed by EC20 concentration of ACh. Agonists containing ECmax concentration of ACh were added to the wells that incubated with DMSO and assay buffer from the 1st and 2nd adds to measure maximum Ca responses (ECmax). Calcium fluorescence was recorded as fold over basal fluorescence and raw data were normalized to the maximal response to ACh agonist. […]
SMILES,hM1 %ACh Max ± SEM [%ACh Max],hM1 pEC50 ± SEM
Cn1cc(-c2ccc(Cc3cc(C(=O)N[C@H]4CCOC[C@@H]4O)nn3C3CCCCC3)cc2)cn1 [17h],73 ± 3.1,
Cn1cc(-c2ccc(Cc3cc(C(=O)N[C@H]4CCCCC[C@@H]4O)nn3C3CCCC3)cc2)cn1 [17l],79 ± 4.4,
Cn1cc(-c2ccc(Cc3cc(C(=O)NC4CC5(COC5)C4)nn3C3CCCC3)cc2)cn1 [17p],78 ± 8.8,
Cn1cc(-c2ccc(Cc3cc(C(=O)N[C@H]4CCOC[C@@H]4O)nn3C3CCOC3)cc2)cn1 (stereo partly shown) [17j],71 ± 4.1,
Cn1cc(-c2ccc(Cc3cc(C(=O)N[C@H]4CCC[C@@H]4O)nn3C3CCCC3)cc2)cn1 [17m],76 ± 10,
Cn1cc(-c2ccc(Cc3cc(C(=O)N[C@H]4CCCCC[C@@H]4O)nn3-c3ccccc3)cc2)cn1 [17e],72 ± 2.6,
Cn1cc(-c2ccc(Cc3cc(C(=O)NC4CC(F)C4)nn3C3CCCC3)cc2)cn1 (stereo not shown) [17o],46 ± 1.1,
Cn1cc(-c2ccc(Cc3cc(C(=O)N[C@H]4CC[C@@H]4O)nn3-c3ccccc3)cc2)cn1 [17d],48 ± 7.4,
CC(C)n1nc(C(=O)N[C@H]2CCOC[C@@H]2O)cc1Cc1ccc(-c2cnn(C)c2)cc1 [17i],,Inactive (n = 3) Inactive (n = 3)
Cn1cc(-c2ccc(Cc3cc(C(=O)N[C@H]4CCCC[C@@H]4O)nn3-c3ccccc3)cc2)cn1 [17a],70 ± 1.5,
Cn1cc(-c2ccc(Cc3cc(C(=O)N[C@H]4CCOC[C@@H]4O)nn3-c3ccccc3)cc2)cn1 [17b],74 ± 0.6,
Cn1cc(-c2ccc(Cc3cc(C(=O)N[C@@H]4CCOC[C@H]4F)nn3C3CCCC3)cc2)cn1 [17n],67 ± 2.5,
Cn1cc(-c2ccc(Cc3cc(C(=O)N[C@H]4CCC[C@@H]4O)nn3-c3ccccc3)cc2)cn1 [17c],58 ± 3.0,

# Same assay, conditions: read-out: hM1 pEC50 ± SEM (converted)
row,SMILES,EC50 [nM]
1,Cn1cc(-c2ccc(Cc3cc(C(=O)N[C@H]4CCOC[C@@H]4O)nn3C3CCCCC3)cc2)cn1 [17h],4900
2,Cn1cc(-c2ccc(Cc3cc(C(=O)N[C@H]4CCCCC[C@@H]4O)nn3C3CCCC3)cc2)cn1 [17l],661
3,CNC(=O)c1ccc(Cc2cc(C(=O)N[C@H]3CCOC[C@@H]3O)nn2C2CCCC2)cc1 [compound 21],1260
4,Cn1cc(-c2ccc(Cc3cc(C(=O)NC4CC5(COC5)C4)nn3C3CCCC3)cc2)cn1 [17p],2950
5,Cn1cc(-c2ccc(Cc3cc(C(=O)N[C@H]4CCOC[C@@H]4O)nn3C3CCOC3)cc2)cn1 (stereo partly shown) [17j],1200
6,Cn1cc(-c2ccc(Cc3cc(C(=O)N[C@H]4CCC[C@@H]4O)nn3C3CCCC3)cc2)cn1 [17m],2140
7,Cn1cc(-c2ccc(Cc3cc(C(=O)N[C@H]4CCCCC[C@@H]4O)nn3-c3ccccc3)cc2)cn1 [17e],4570
8,Cn1cc(-c2ccc(Cc3cc(C(=O)NC4CC(F)C4)nn3C3CCCC3)cc2)cn1 (stereo not shown) [17o],> 10000
9,Cn1cc(-c2ccc(Cc3cc(C(=O)N[C@H]4CC[C@@H]4O)nn3-c3ccccc3)cc2)cn1 [17d],> 10000
10,Cn1cc(-c2ccc(Cc3cc(C(=O)N[C@H]4CCCC[C@@H]4O)nn3-c3ccccc3)cc2)cn1 [17a],3020
11,Cn1cc(-c2ccc(Cc3cc(C(=O)N[C@H]4CCOC[C@@H]4O)nn3-c3ccccc3)cc2)cn1 [17b],2000
12,Cn1cc(-c2ccc(Cc3cc(C(=O)N[C@@H]4CCOC[C@H]4F)nn3C3CCCC3)cc2)cn1 [17n],6610
13,Cn1cc(-c2ccc(Cc3cc(C(=O)N[C@H]4CCOC[C@@H]4O)nn3Cc3ccccc3)cc2)cn1 [17f],> 10000
14,Cn1cc(-c2ccc(Cc3cc(C(=O)N[C@H]4CCC[C@@H]4O)nn3-c3ccccc3)cc2)cn1 [17c],> 10000

# Target: T2, rat muscarinic receptor subtype 1 (M1) (Rattus norvegicus, UniProt P08482)
# T2 construct: expressed in transfected cells
# T2 sequence (P08482 1-460): T1 sequence (P11229 1-460) with A5V, T254S, P309S, R320K, A337G, I413V
# Experiment: Calcium mobilization assay in rM1-CHO cells, PAM activity with EC20 acetylcholine
# Type: cell-based
# Conditions: not given
# Experimental: as §1
SMILES,rM1 %ACh Max ± SEM [%ACh Max],rM1 pEC50 ± SEM
Cn1cc(-c2ccc(Cc3cc(C(=O)N[C@H]4CCOC[C@@H]4O)nn3C3CCCCC3)cc2)cn1 [17h],80 ± 7.1,
Cn1cc(-c2ccc(Cc3cc(C(=O)N[C@H]4CCCCC[C@@H]4O)nn3C3CCCC3)cc2)cn1 [17l],81 ± 3.8,
Cn1cc(-c2ccc(Cc3cc(C(=O)NC4CC5(COC5)C4)nn3C3CCCC3)cc2)cn1 [17p],76 ± 4.2,
Cn1cc(-c2ccc(Cc3cc(C(=O)N[C@H]4CCOC[C@@H]4O)nn3C3CCOC3)cc2)cn1 (stereo partly shown) [17j],75 ± 7.6,
Cn1cc(-c2ccc(Cc3cc(C(=O)N[C@H]4CCC[C@@H]4O)nn3C3CCCC3)cc2)cn1 [17m],73 ± 5.3,
Cn1cc(-c2ccc(Cc3cc(C(=O)N[C@H]4CCCCC[C@@H]4O)nn3-c3ccccc3)cc2)cn1 [17e],80 ± 3.2,
Cn1cc(-c2ccc(Cc3cc(C(=O)NC4CC(F)C4)nn3C3CCCC3)cc2)cn1 (stereo not shown) [17o],50 ± 3.7,
Cn1cc(-c2ccc(Cc3cc(C(=O)N[C@H]4CC[C@@H]4O)nn3-c3ccccc3)cc2)cn1 [17d],51 ± 3.9,
CC(C)n1nc(C(=O)N[C@H]2CCOC[C@@H]2O)cc1Cc1ccc(-c2cnn(C)c2)cc1 [17i],,Inactive (n = 3) Inactive (n = 3)
Cn1cc(-c2ccc(Cc3cc(C(=O)N[C@H]4CCCC[C@@H]4O)nn3-c3ccccc3)cc2)cn1 [17a],80 ± 3.8,
Cn1cc(-c2ccc(Cc3cc(C(=O)N[C@H]4CCOC[C@@H]4O)nn3-c3ccccc3)cc2)cn1 [17b],84 ± 4.6,
Cn1cc(-c2ccc(Cc3cc(C(=O)N[C@@H]4CCOC[C@H]4F)nn3C3CCCC3)cc2)cn1 [17n],72 ± 3.8,
Cn1cc(-c2ccc(Cc3cc(C(=O)N[C@H]4CCOC[C@@H]4O)nn3Cc3ccccc3)cc2)cn1 [17f],57 ± 4.6,
Cn1cc(-c2ccc(Cc3cc(C(=O)N[C@H]4CCC[C@@H]4O)nn3-c3ccccc3)cc2)cn1 [17c],69 ± 4.3,

# Same assay, conditions: read-out: rM1 pEC50 ± SEM (converted)
row,SMILES,EC50 [nM]
1,Cn1cc(-c2ccc(Cc3cc(C(=O)N[C@H]4CCOC[C@@H]4O)nn3C3CCCCC3)cc2)cn1 [17h],1480
2,Cn1cc(-c2ccc(Cc3cc(C(=O)N[C@H]4CCCCC[C@@H]4O)nn3C3CCCC3)cc2)cn1 [17l],724
3,CNC(=O)c1ccc(Cc2cc(C(=O)N[C@H]3CCOC[C@@H]3O)nn2C2CCCC2)cc1 [compound 21],794
4,Cn1cc(-c2ccc(Cc3cc(C(=O)NC4CC5(COC5)C4)nn3C3CCCC3)cc2)cn1 [17p],1910
5,Cn1cc(-c2ccc(Cc3cc(C(=O)N[C@H]4CCOC[C@@H]4O)nn3C3CCOC3)cc2)cn1 (stereo partly shown) [17j],562
6,Cn1cc(-c2ccc(Cc3cc(C(=O)N[C@H]4CCC[C@@H]4O)nn3C3CCCC3)cc2)cn1 [17m],1580
7,Cn1cc(-c2ccc(Cc3cc(C(=O)N[C@H]4CCCCC[C@@H]4O)nn3-c3ccccc3)cc2)cn1 [17e],3470
8,Cn1cc(-c2ccc(Cc3cc(C(=O)NC4CC(F)C4)nn3C3CCCC3)cc2)cn1 (stereo not shown) [17o],> 10000
9,Cn1cc(-c2ccc(Cc3cc(C(=O)N[C@H]4CC[C@@H]4O)nn3-c3ccccc3)cc2)cn1 [17d],> 10000
10,Cn1cc(-c2ccc(Cc3cc(C(=O)N[C@H]4CCCC[C@@H]4O)nn3-c3ccccc3)cc2)cn1 [17a],2510
11,Cn1cc(-c2ccc(Cc3cc(C(=O)N[C@H]4CCOC[C@@H]4O)nn3-c3ccccc3)cc2)cn1 [17b],1200
12,Cn1cc(-c2ccc(Cc3cc(C(=O)N[C@@H]4CCOC[C@H]4F)nn3C3CCCC3)cc2)cn1 [17n],4170
13,Cn1cc(-c2ccc(Cc3cc(C(=O)N[C@H]4CCOC[C@@H]4O)nn3Cc3ccccc3)cc2)cn1 [17f],> 10000
14,Cn1cc(-c2ccc(Cc3cc(C(=O)N[C@H]4CCC[C@@H]4O)nn3-c3ccccc3)cc2)cn1 [17c],> 10000
